Measured values taken from US20160136123A1, “TREATMENT OF AUTOPHAGY-RELATED DISORDERS” (STC.UNM, priority 2013, published 2016).

Legend:
HeLa cells = test: LC3-II conversion immunoblot (LC3-II/actin) with or without bafilomycin A1 after oleic acid pretreatment and starvation; assay type: cell-based, Human
Method: Panals (A) and (B): HeLa cells stably expressing mRFP-GFP-LC3 were treated for 20 h with BSA alone (BSA) or with BSA-oleic acid (OA; 500 μM OA) and then starved in EBSS for 90 min (Starv) or incubated in full medium (Full). A, Visualization of lipid droplet accumulation. Cells were treated as in A and lipid droplets stained with Bodipy 493/503. B, High content image analysis. Program (iDev)-assigned masks: blue outline, valid primary objects (cells); green mask, GFP puncta. (C) number of GFP+ puncta per cell from experiments illustrated in A. (D) RFP+ puncta per cell from experiments illustrated in A. High content analysis data: means±s.e. (n=3, where n represents separate experiments; each experimental point in separate experiments contained >500 cells identified by the program as valid primary objects); *, p<0.05 (t-test). (E) HeLa cells were treated with 0, 100, 500 or 1000 μM oleic acid (OA) using BSA as a carrier (BSA-OA) for 20 h, followed by 90 min starvation in EBSS with or without Bafilomycin A1 (BafA1), and LC3-II/actin ratios determined by immunoblotting and densitometry. (F) HeLa cells were treated for 20 h with BSA alone or with BSA-OA (500 μM OA), followed by starvation in EBSS for 90 min with or without Bafilomycin A1 (BafA1) and LC3-II/actin ratios determined by immunoblotting and densitometry. Immunobloting data: means means±s.e., *, p<0.05 (t-test).
Addition of oleic acid (OA) is commonly used to increase cellular LD content. […] The enhancement was detected at both autophagy initiation stage (FIG. 1C; GFP-LC3) and autophagosomal maturation (FIG. 1D; mRFP-GFP), as determined by the acidification-sensitive GFP and acidification-insenstive mRFP probes used to distinguish early autophagosomes and autolysosomes, respectively. […]
Antibodies against endogenous proteins LC3 (MBL), P62 (BD Transduction), Atg16L1 (Cosmo Bio) were used for indirect immunofluorescence analysis. […] SlideBook morphometric analysis software 5.0 (Intelligent Imaging Innovations) was used to quantify the colocalization between Atg16L1 or DAG and lipid droplets. […]

[1] = test system: HeLa cells stably expressing mRFP-GFP-LC3; test: High content imaging of LC3 puncta after oleic acid pretreatment; assay type: cell-based, Human; details: 500 μM BSA-oleic acid 20 h, then full medium or EBSS starvation 90 min
Method: Panals (A) and (B): HeLa cells stably expressing mRFP-GFP-LC3 were treated for 20 h with BSA alone (BSA) or with BSA-oleic acid (OA; 500 μM OA) and then starved in EBSS for 90 min (Starv) or incubated in full medium (Full). A, Visualization of lipid droplet accumulation. Cells were treated as in A and lipid droplets stained with Bodipy 493/503. B, High content image analysis. Program (iDev)-assigned masks: blue outline, valid primary objects (cells); green mask, GFP puncta. (C) number of GFP+ puncta per cell from experiments illustrated in A. (D) RFP+ puncta per cell from experiments illustrated in A. High content analysis data: means±s.e. (n=3, where n represents separate experiments; each experimental point in separate experiments contained >500 cells identified by the program as valid primary objects); *, p<0.05 (t-test). (E) HeLa cells were treated with 0, 100, 500 or 1000 μM oleic acid (OA) using BSA as a carrier (BSA-OA) for 20 h, followed by 90 min starvation in EBSS with or without Bafilomycin A1 (BafA1), and LC3-II/actin ratios determined by immunoblotting and densitometry. (F) HeLa cells were treated for 20 h with BSA alone or with BSA-OA (500 μM OA), followed by starvation in EBSS for 90 min with or without Bafilomycin A1 (BafA1) and LC3-II/actin ratios determined by immunoblotting and densitometry. Immunobloting data: means means±s.e., *, p<0.05 (t-test). […]

autophagic maturation = details: e.g. 1 mM, reference [27]; cited from earlier work
[2] = test system: HeLa cells stably expressing mRFP-GFP-LC3B; test: TRIM family screen control: GFP-LC3B puncta area after pp242; assay type: cell-based, Human; details: pp242 for 2 h, versus vehicle
From the text: Referring to FIG. 1A/A HeLa cells stably expressing mRFP-GFP-LC3B were subjected to TRIM knockdowns, treated with pp242, and imaged to detect nuclear stain (blue) and GFP signal (green). Top, non-targeting siRNA-transfected cells treated with carrier (DMSO) or pp242. White lines, cell borders. Red, LC3B puncta borders. Bottom, representative images of cells subjected to knockdown of TRIM45 and TRIM2, both treated with pp242. (B) Measurement of average area of GFP-LC3B area per cell from cells treated as in (A) (data from multiple 96-well plates with identical siRNA arrangements represent means and ±SE).
Cells were exposed to virus at 4° C. for 1 hour to allow binding but not entry. […] Samples were prepared for analysis of p24, reverse transcriptase, or proviral DNA. […] HIV-1 RT was determined according to the manufacturer's protocol (Enz Chek, Invitrogen). HIV-1 proviral DNA was quantified as previously described (Campbell et al., 2004). […]
HeLa cells stably expressing mRFP-GFP-LC3B were cultured in 96-well plates containing siRNAs against 67 human TRIMs and transfection reagent (Dharmacon). […] Automated image collection of >500 cells (distributed over 49 or fewer fields per well per siRNA knockdown per plate) were machine-analyzed using preset scanning parameters and object mask definition (iDEV software). […] When results were expressed as puncta area per cell, the units corresponded to μm^2/cell.

[3] = test system: 293T cells and HeLa cells; test: TRIM5α overexpression: LC3-II abundance (bafilomycin A1 flux assay) and LC3 puncta by high content analysis; assay type: cell-based, Human; details: GFP-tagged protein overexpressed, compared with GFP alone; with or without bafilomycin A1
From the text: FIG. 2A/A illustrates mapping of the p62/Sequestosome 1 region interacting with RhTRIM5α. Schematic (left): domain organization of p62 and deletion/point mutation constructs employed to analyze interactions with RhTRIM5α (right panel). TR, TRIM5α and TRAF6 binding region; NLS, nuclear localization signal; NES, nuclear export signal; LIR, LC3-interacting region; KIR, KEAP1-interacting region. Analysis (right): Myc-RhTRIM5α was radiolabeled with [^35S] methionine by in vitro translation and analyzed by GST pulldown assays with GST-p62 fusion proteins. Top, autoradiogram. Bottom, Coomassie Brilliant Blue (CBB)-stained SDS-polyacrylamide gel with GST-p62 proteins. (B) Effects of TRIM5α knockdown in HeLa cells on GFP-LC3 puncta (area/cell) under basal (DMSO control) and autophagy-inducing (pp242) conditions. HuT5a, human TRIM5α; Scr, Scrambled control. […]
We first tested p62 and TRIM5α interaction (FIG. S2A) and co-localization (FIG. S2B), and mapped the TRIM5α-binding domain on p62 to the region demarcated by residues 170-256 (FIG. 2A). […] When TRIM5α was knocked down, fewer LC3 puncta were detected ([…]) and LC3-II yields (FIG. 2A/B,C) upon induction with pp242 were reduced. […] In these experiments, high content analysis was used to differentiate GFP-TRIM5α-transfected or GFP-transfected cells from untransfected cells based on their green fluorescence. […]

## CCCCCCCC/C=C\CCCCCCCC(=O)O [OA, oleic acid]
HeLa cells; 0, 100, 500 or 1000 μM OA 20 h, 90 min starvation in EBSS with or without bafilomycin A1
  OA concentration optimal for enhancing starvation-induced autophagy (LC3-II/actin titration): 500 µM
HeLa cells; 500 μM BSA-OA 20 h, EBSS 90 min with or without bafilomycin A1
  effect of OA pretreatment in the bafilomycin A1 inhibition assay (LC3-II/actin): enhanced cellular capacity for initiation of autophagy upon starvation
HeLa cells; 1 mM OA 20 h, 90 min starvation in EBSS
  effect of 1 mM OA on starvation-induced autophagy (LC3-II/actin titration): either a plateau or potentially inhibitory effects on autophagy
[1]
  effect of increase in lipid droplets following OA pretreatment on autophagy (GFP+ and RFP+ LC3 puncta per cell): enhanced basal and induced autophagy
Autophagic maturation
  effect of high concentrations of OA on autophagic maturation: inhibitory to autophagic maturation

## CC(C)n1nc(-c2cc3cc(O)ccc3[nH]2)c2c(N)ncnc21 [pp242]
[2]
  induction of GFP-LC3B puncta area: 17 fold

## C15A mutant of RhTRIIVI5α: catalytically inactive (E3 ligase) C15A mutant of rhesus TRIM5α
[3]
  effect of TRIM5α overexpression on autophagy (LC3-II, LC3 puncta): induced autophagy comparably to wt RhTRIM5α
